Here are results for two compounds from US20070111265A1, “Ligands for mineralocorticoid receptor (MR) and methods for screening for or designing MR ligands” (Van Andel Research Institute, priority 2005, published 2007).

Residue numbers refer to the chain shown, from its start. pEC50: −log10 of the molar value. “Also recorded” adds a separate entry of the source.

Assay [1] deals with T1, MR L848Q (Homo sapiens, UniProt P08235, L848Q).
T1 construct: (S843P and L848Q) within the context of the full length wild type receptor; expressed in transfected cells; host or cells: Cos-7
T1 sequence (P08235 1-984 L848Q): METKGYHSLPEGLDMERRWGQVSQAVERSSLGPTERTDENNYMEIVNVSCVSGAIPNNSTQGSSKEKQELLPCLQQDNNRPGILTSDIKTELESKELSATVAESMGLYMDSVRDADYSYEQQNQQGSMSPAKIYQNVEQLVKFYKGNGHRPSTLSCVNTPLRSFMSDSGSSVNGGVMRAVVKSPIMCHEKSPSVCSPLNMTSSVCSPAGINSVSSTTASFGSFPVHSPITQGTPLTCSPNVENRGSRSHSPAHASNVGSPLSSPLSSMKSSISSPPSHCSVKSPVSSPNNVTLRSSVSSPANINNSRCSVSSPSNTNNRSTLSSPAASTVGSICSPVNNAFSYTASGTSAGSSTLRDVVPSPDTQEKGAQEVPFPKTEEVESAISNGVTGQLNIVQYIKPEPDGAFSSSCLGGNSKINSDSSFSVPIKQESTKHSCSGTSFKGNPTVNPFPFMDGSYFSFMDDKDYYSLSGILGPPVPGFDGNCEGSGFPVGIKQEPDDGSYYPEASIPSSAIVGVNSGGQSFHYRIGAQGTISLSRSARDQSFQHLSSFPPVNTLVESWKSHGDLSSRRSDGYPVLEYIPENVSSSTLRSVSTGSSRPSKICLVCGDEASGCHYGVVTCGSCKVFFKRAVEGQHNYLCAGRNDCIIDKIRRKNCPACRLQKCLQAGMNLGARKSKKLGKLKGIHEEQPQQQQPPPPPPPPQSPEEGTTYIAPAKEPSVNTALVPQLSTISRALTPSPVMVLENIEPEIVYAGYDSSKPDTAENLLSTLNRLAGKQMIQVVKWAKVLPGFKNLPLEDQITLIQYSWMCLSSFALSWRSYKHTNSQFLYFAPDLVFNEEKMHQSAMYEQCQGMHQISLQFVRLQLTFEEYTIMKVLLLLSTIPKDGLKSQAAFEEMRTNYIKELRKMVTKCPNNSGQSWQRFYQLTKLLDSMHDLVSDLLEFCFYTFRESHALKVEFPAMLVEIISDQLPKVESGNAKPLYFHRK
Put plainly: MMTV luciferase reporter assay in Cos-7 cells. The class given is cell-based. The protocol:
(§1) Cos-7 cells were maintained in DMEM containing 10% fetal bovine serum (FBS) and were transiently transfected using Lipofectamine 2000 (Invitrogen). […] Cells were transfected in Opti-MEM with 400 ng of MMTV-Luc reporter plasmid and 400 ng of receptor expression vector (pRS vector) encoding full-length GR and MR respectively (ATCC). […] Luciferase data were normalized to Renilla activity as an internal control.
(§2) To validate the role of the key MR pocket residues in hormone recognition, the inventors mutated S843 and L848 to the corresponding GR residues (S843P and L848Q) within the context of the full length wild type receptor. […] We also performed reverse mutations in the full length GR receptor (P637S and Q642L) and tested them in the same MMTV reporter.
(In general: A reporter such as luciferase makes a cellular process visible.)

Assay [2] has as its target T2, MR L848Q/S843P (Homo sapiens, UniProt P08235, L848Q/S843P).
T2 construct: (S843P and L848Q) within the context of the full length wild type receptor; expressed in transfected cells; host or cells: Cos-7
T2 sequence (P08235 1-984 S843P/L848Q): T1 sequence (P08235 1-984 L848Q) with S843P
Nature of the assay: MMTV luciferase reporter assay in Cos-7 cells. The class given is cell-based. As to conditions: double mutation. The protocol: as §1, §2

As usually defined, the pEC50 is −log10 of the EC50, conventionally taken in molar units.

For `C[C@]12C[C@H](O)[C@H]3[C@@H](CCC4=CC(=O)CC[C@@]43C)[C@@H]1CC[C@@H]2C(=O)CO` [corticosterone], the pEC50 in assay [1] (Cos-7, MMTV-Luc, read-out: EC50, activation of MR L848Q) is ~9.00. For the same compound, the “decrease of potency by L848Q mutation” value in assay [1] (versus wild type MR) is recorded as “at least 10 fold”. Further, the “activation of MR L848Q/S843P” value in assay [2] was “totally abolished; also recorded: severely affects activation”.

In the case of `C[C@]12CCC(=O)C=C1CC[C@@H]1[C@@H]2[C@@H](O)C[C@@]2(C)[C@H]1CC[C@]2(O)C(=O)CO` [cortisol], the “activation of MR L848Q” value in assay [1] (versus wild type MR) is reported as “not affected”. The “activation of MR L848Q/S843P” value in assay [2] is listed as “totally abolished; also recorded: severely affects activation”.
